How the values were obtained:
Assay in all cases: relative viability (nuclei count vs DMSO), 5 days (fraction); higher = more cells survive
[1] = compound: CC(O)(CS(=O)(=O)c1ccc(F)cc1)C(=O)Nc1ccc(C#N)c(C(F)(F)F)c1 [Bicalutamide] + C[C@@H](Oc1cc(-c2cnn(C3CCNCC3)c2)cnc1N)c1c(Cl)ccc(F)c1Cl [Crizotinib] (partner 1 µM)
Outline: (§1)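 Dosing by pin tool came one day after lung cancer cell lines were seeded in 1536-well plates, using either one drug or a fixed anchor-drug dose plus five library-drug doses (not always all listed) in √10 steps. After 5 days, nuclei were counted on 4× images. Relative viability is treated-well nuclei count divided by vehicle-well nuclei count, and values are medians of duplicate plates.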

[2] = compound: C(C(=O)C(=O)O)Br [Bromopyruvate] + O=C(c1cc(Cc2n[nH]c(=O)c3ccccc23)ccc1F)N1CCN(C(=O)C2CC2)CC1 [Olaparib] (partner 8 µM)
Outline: as §1

[3] = compound: C(C(=O)C(=O)O)Br [Bromopyruvate] + NC(=O)Nc1cc(-c2cccc(F)c2)sc1C(=O)N[C@H]1CCCNC1 [AZD7762] (partner 0.2 µM)
Outline: as §1

[4] = compound: CC(O)(CS(=O)(=O)c1ccc(F)cc1)C(=O)Nc1ccc(C#N)c(C(F)(F)F)c1 [Bicalutamide] + COc1cc2c(Oc3ccc(NC(=O)C4(C(=O)Nc5ccc(F)cc5)CC4)cc3F)ccnc2cc1OCCCN1CCOCC1 [Foretinib] (partner 0.25 µM)
Outline: as §1

Row | Cell Line | relative viability ([1]; first compound 0.08 µM) | relative viability ([1]; first compound 0.253 µM) | relative viability ([1]; first compound 0.8 µM) | relative viability ([1]; first compound 2.53 µM) | relative viability ([2]; first compound 1 µM) | relative viability ([2]; first compound 3.162 µM) | relative viability ([2]; first compound 10 µM) | relative viability ([2]; first compound 31.62 µM) | relative viability ([2]; first compound 100 µM) | relative viability ([3]; first compound 1 µM) | relative viability ([3]; first compound 3.162 µM) | relative viability ([3]; first compound 10 µM) | relative viability ([3]; first compound 31.62 µM) | relative viability ([3]; first compound 100 µM) | relative viability ([4]; first compound 0.08 µM) | relative viability ([4]; first compound 0.253 µM) | relative viability ([4]; first compound 0.8 µM) | relative viability ([4]; first compound 2.53 µM)
1 | HCC-44 | 0.838 | 0.817 | 0.832 | 0.968 | 0.939 | 0.932 | 0.969 | 0.938 | 0.972 | 0.959 | 1.01 | 0.963 | 1.02 | 1.04 | – | – | – | –
2 | IA-LM | 1.14 | 0.819 | 0.88 | 1.02 | 0.839 | 0.857 | 0.855 | 0.98 | 0.941 | – | – | – | – | – | 1.22 | 1.1 | 1.17 | 1.18
3 | NCI-H520 | 0.836 | 0.681 | 0.93 | 0.577 | 0.37 | 0.32 | 0.367 | 0.302 | 0.264 | – | – | – | – | – | 0.856 | 0.708 | 0.773 | 0.621
4 | NCI-H522 | – | – | – | – | 0.615 | 0.54 | 0.693 | 0.643 | 0.477 | 0.874 | 0.861 | 0.821 | 1.05 | 0.755 | – | – | – | –
5 | NCI-H661 | 1.14 | – | 0.881 | 0.989 | 0.734 | 0.7 | 0.799 | 0.731 | 0.65 | – | – | – | – | – | 1.02 | 1.04 | 1.04 | 0.958
6 | NCI-H1299 | 0.969 | 0.93 | 0.957 | 0.911 | 0.937 | 0.951 | 0.963 | 0.979 | 0.882 | – | – | – | – | – | 1.04 | 1.08 | 1.09 | 1.08
7 | NCI-H1395 | – | – | – | – | 0.447 | 0.452 | 0.476 | 0.52 | 0.443 | 0.447 | 0.398 | 0.426 | 0.414 | 0.42 | 0.938 | 0.94 | 1.23 | 0.874
8 | NCI-H1563 | 0.863 | 0.861 | 0.794 | 0.743 | – | – | – | – | – | – | – | – | – | – | 0.888 | 0.872 | 0.89 | 0.897
9 | NCI-H1623 | – | – | – | – | – | – | – | – | – | – | – | – | – | – | 0.883 | 0.884 | 0.918 | 0.869
10 | NCI-H1648 | – | – | – | – | 0.731 | 0.92 | 0.978 | 1.11 | 0.982 | 0.671 | 0.721 | 0.713 | 0.623 | 0.551 | – | – | – | –
11 | NCI-H1650 | 0.892 | 0.937 | 0.979 | 0.992 | 0.82 | 0.734 | 0.723 | 0.71 | 0.567 | – | – | – | – | – | 1.28 | 1.17 | 1.14 | 1.27
12 | NCI-H1792 | 0.922 | 0.888 | 1.02 | 1.02 | 0.0016 | 0.469 | 0.532 | 0.582 | 0.68 | 0.678 | 0.783 | 0.792 | 0.798 | 0.655 | – | – | – | –
13 | NCI-H1793 | – | – | – | – | 0.841 | 0.95 | 0.925 | 0.921 | 0.89 | 0.452 | 0.536 | 0.484 | 0.428 | 0.522 | 0.796 | 0.553 | 0.983 | 0.792
14 | NCI-H2009 | 1.01 | 1.01 | 1.04 | 0.973 | 0.672 | 0.688 | 0.727 | 0.645 | 0.461 | – | – | – | – | – | 1.35 | 1.23 | 1.19 | 1.17
15 | NCI-H2023 | 0.691 | 0.601 | 0.679 | 0.462 | 0.452 | 0.455 | 0.465 | 0.544 | 0.551 | – | – | – | – | – | 0.957 | 0.506 | 0.845 | 0.774
16 | NCI-H2228 | 0.443 | 0.52 | 0.754 | 0.463 | 0.813 | 0.635 | 0.711 | 0.567 | 0.647 | – | – | – | – | – | 0.933 | 0.843 | 1 | 1.02
17 | NCI-H2342 | – | – | – | – | 0.477 | 0.367 | 0.376 | 0.377 | 0.344 | 0.397 | 0.436 | 0.451 | 0.47 | 0.481 | 1.08 | 1.13 | 1.09 | 1.08
18 | SK-LU-1 | 0.936 | 0.967 | 1.08 | 0.854 | 0.425 | 0.416 | 0.492 | 0.367 | 0.424 | – | – | – | – | – | 0.99 | 0.785 | 1.01 | 0.78
19 | SK-MES-1 | 1.03 | 0.902 | 1.02 | 1.01 | 0.802 | 0.738 | 0.85 | 0.626 | 0.554 | – | – | – | – | – | 0.832 | 0.829 | 0.979 | 1.03
20 | SW 900 | – | – | – | – | 0.892 | 0.874 | 0.936 | 0.8 | 0.821 | 0.629 | 0.528 | 0.519 | 0.564 | 0.66 | 1.15 | 0.866 | 1.04 | 1.07
21 | SW 1573 | 0.972 | 0.761 | 1.08 | 0.721 | 0.555 | 0.469 | 0.475 | 0.358 | 0.0623 | – | – | – | – | – | 0.929 | 0.71 | 1.08 | 0.778

Source: the supplement of paper PMC10307832
